Results: paper PMC11938014, “Development and Application of Small Molecule–Peptide Conjugates as Cathepsin K-Specific Covalent Irreversible Inhibitors in Human Osteoclast and Lung Cancer” (JACS Au, 2025)

How the values were obtained:
mouse CTSK in mouse OCs = target: T1, mouse CTSK in mouse OCs (Mus musculus, UniProt P55097); assay: Residual cathepsin activity in mice osteoclasts (GB123 gel); assay type: cell-based; settings: 5 μM, 2 h, then GB123 2 h
T1 construct: endogenous in cells; host or cells: osteoclasts differentiated from C57BL/6 mouse bone marrow
T1 sequence (P55097 115-329): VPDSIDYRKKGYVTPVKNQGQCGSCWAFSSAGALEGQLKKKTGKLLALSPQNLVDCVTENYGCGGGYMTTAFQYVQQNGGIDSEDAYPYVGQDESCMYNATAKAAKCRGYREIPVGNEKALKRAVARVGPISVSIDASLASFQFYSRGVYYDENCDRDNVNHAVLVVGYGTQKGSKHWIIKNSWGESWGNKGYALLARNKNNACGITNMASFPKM
Experimental: (§1) Human and mouse CTSK species have a high degree of structural commonality. […] Therefore, to investigate the inhibitors’ cross-reactivity with mouse CTSK, mouse OCs were cultivated with mouse bone marrow cells stimulated with M-CSF and RANKL for 9–10 days. In addition, control cells differentiated into macrophages that highly express active cathepsins but not CTSK and were generated by treatment with M-CSF and IL-4.[49] Both intact OC and macrophage cells were incubated for 2 h with GD20, vehicle, or ODN, followed by a 2 h incubation with pan-cathepsin probe GB123. The CTSK-specific fluorescent band near 25 kDa disappeared in cells treated with GD20, whereas the other competing band remained unaltered (Figure 7a). Mice OS samples were blotted to identify the different cathepsins in the sample (Figure S9b).
(§2) Figure 7 CTSK inhibition in mice osteoclasts. (a) Activity and expression of CTSK in mouse OCs were assessed in the presence of indicated inhibitors. Intact OCs were treated for 2 h with 5 μM inhibitor in the culture medium, followed by 2 h of labeling of residual enzyme activity by GB123. Samples were analyzed by SDS-PAGE and scanned for fluorescence with a Typhoon scanner at 635/670 nm. Western blot with anti-CTSK is shown aside. […] Samples were analyzed by SDS-PAGE and scanned for fluorescence with a Typhoon scanner at 635/670 nm. […]

[1] = tested on: IL-4-induced macrophage cells; assay: Residual cathepsin activity in IL-4-induced macrophages lacking CTSK (GB123 gel); assay type: cell-based, mouse; settings: 5 μM, 2 h, then GB123
Experimental: as §1, §2

CTSK in human OCs = target: T2, CTSK in human OCs (Homo sapiens, UniProt P43235); assay: Gel-based residual cathepsin activity in human osteoclasts (GB123) and immunoblot; assay type: cell-based
T2 construct: endogenous in cells; host or cells: primary human osteoclasts differentiated from blood monocytes with M-CSF and RANKL
T2 sequence (P43235 115-329): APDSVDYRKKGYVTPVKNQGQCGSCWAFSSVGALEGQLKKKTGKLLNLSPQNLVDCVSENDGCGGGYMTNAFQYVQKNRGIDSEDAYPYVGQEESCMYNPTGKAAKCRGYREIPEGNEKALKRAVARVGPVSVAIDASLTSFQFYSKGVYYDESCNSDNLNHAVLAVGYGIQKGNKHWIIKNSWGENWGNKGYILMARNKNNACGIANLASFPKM
Experimental: Figure 6 CTSK inhibition in human osteoclasts. (a) Scheme of the process of maturation of osteoclasts (OCs) derived from human monocytes in the presence of RANKL and M-CSF. (b) Representative pictures of bone resorption after incubation with human OCs treated with vehicle or inhibitors for 10–14 days. Bone resorption was observed by a toluidine blue stain. Increased staining indicates a higher number of resorption pits and greater bone resorption. (c) Quantitative analysis of pit formation in bone slices after incubation with OC treated with GD20 or ODN (1, 5 μM) relative to vehicle treated slices. Data represent mean ± standard errors, and asterisks represent p values relative to control, *p < 0.05, **p < 0.01, ***p < 0.001, n = 3 bone slices. (d) Representative images of tartrate-resistant acid phosphatase (TRAP) staining of the human osteoclasts on bone slices in the presence of vehicle or inhibitors, as indicated. […] (e) Quantification of osteoclasts number on bone slices after inhibitor treatment, detected by TRAP staining. (f) Human OCs were treated with vehicle or increasing concentrations of GD20 for 11 days (changing the medium every 2–3 days). The activity of CTSK in the cells was detected by 2 h labeling with a pan-cathepsin activity-based probe, GB123, followed by a fluorescence scan of the SDS-PAGE detecting CTSK attached to the probe; the red arrow points to the bands of CTSK (above 25 kDa). CTSK immunoblot of the same OCs is presented aside.
Cells were seeded 3 × 10^6 per 24-well plate (Primaria, Corning) in 1 mL of RPMI 1640 medium supplemented with 10% FBS and 50 μg/mL gentamicin. The next day, the medium was removed, and the adherent cells were washed with α-MEM and cultured for 14 consecutive days in α-MEM supplemented with 10% FBS, 1% penicillin, 1% streptomycin (Biological Industries), 100 ng/mL RANKL (R&D Systems), and 25 ng/mL M-CSF (R&D Systems) (for osteoclast) or with 25 ng/mL M-CSF and IL-4 (macrophage). Every 3 days, the media was changed with the required amount of M-CSF and RANKL until the giant osteoclasts appeared or with M-CSF and IL-4. […]

- CTSK-specific fluorescent band near 25 kDa (mouse CTSK in mouse OCs): disappeared
- CTSK activity in human OC (CTSK in human OCs; 1 μM, 11 days, GB123 labeling): blocked most of the CTSK activity
- CTSB activity in human OC (CTSK in human OCs; accompanying CTSK inhibition, GB123 labeling): increase in CTSB activity
- CTSK protein levels by immunoblot (CTSK in human OCs; all inhibitor concentrations): elevated CTSK protein levels
SMILES: CC(C)C[C@H](N[C@@H](c1ccc(-c2ccc(S(C)(=O)=O)cc2)cc1)C(F)(F)F)C(=O)NCC(=O)COC(=O)[C@@H]1CCCN1C(=O)[C@H](CC(C)C)NC(=O)OCC1c2ccccc2-c2ccccc21 [GD20]
- inhibition of cathepsin bands in macrophages that lack CTSK [1]: lack of inhibition of any band
